Laboratory results reported in patent publication US20100197789A1, “ANTI-OBESITY AGENT AND USE THEREOF” (National University Corporation Nagoya University, priority 2006, published 2010).

What was measured:
Format in all cases: in vivo, mouse
db/db mice = assay: Food intake amount and body weight, 5 week-continuous oral administration in drinking water, db/db mice; settings: for body weight increase / food intake amount: oral, 5 weeks
Method: 5 week-old male C57BL/KsJ-db/db mice (db/db mice: body weight 19 to 25 g, Japan SLC, Inc.) were purchased and individually fed in tip cages. For the db/db mice, normal pellet diet (CE-2) was administered under free water intake and free food intake. A body weight and a food intake amount over 24 hours were measured every day from the start of feeding. On day 3 after the start of feeding, blood was taken from an orbit after 6 hour-fasting and a blood glucose level and a blood insulin concentration were measured. The db/db mice were divided into three groups (10 mice per each group) so that a body weight, a 24 hour-food intake amount, a blood glucose level, and a blood insulin concentration were equal, and defined to be a control group, a low concentration baclofen treated group, and a high concentration baclofen treated group. After division into the groups, from day 5 after the start of feeding, (±)-baclofen was dissolved in drinking water and 5 week-continuous oral administration to the baclofen treated groups was started. (±)-baclofen was dissolved in drinking water at a concentration of 1.1 mg/dl in the low concentration treated group and at a concentration of 2.7 mg/dl in the high concentration treated group. A food intake amount and a body weight were measured over time during the period of 5 week-administration of (±)-baclofen, blood was taken after the end of the 5-week administration, and the db/db mice were sacrificed by cervical luxation. Brains, epididymal white adipose tissues, subcutaneous white adipose tissues and brown adipose tissues were surgically removed. The brains and brown adipose tissues were frozen in dry ice and liquid nitrogen immediately after the removal and then preserved at −80° C. The epididymal white adipose tissues and subcutaneous white adipose tissues were measured in weights, and then fixed in 4% formaldehyde and preserved at 4° C.
5 week-old male C57BL/KsJ-db/db mice (db/db mice: body weight 19 to 25 g, Japan SLC, Inc.) were purchased and individually fed in tip cages. For the db/db mice, normal pellet diet (CE-2) was administered under free water intake and free food intake. A body weight and a food intake amount over 24 hours were measured everyday from the start of feeding. On day 3 after the start of feeding, blood was taken from an orbit after 6 hour-fasting and a blood glucose level and a blood insulin concentration were measured. […] After division into the groups, from day 5 after the start of feeding, R-baclofen and S-baclofen were dissolved in drinking water and 5 week-continuous oral administration was started. […] A food intake amount and a body weight were measured over time, and a rectal temperature was measured 5 weeks after the start of the administration. Blood was taken after the 5-week administration of baclofen, and the db/db mice were sacrificed by cervical luxation.
5 week-old male C57BL/KsJ-db/db mice (db/db mice: body weight 19 to 25 g, Japan SLC, Inc.) were purchased and individually fed in tip cages. Normal pellet diet (CE-2) was administered to the db/db mice under free water intake and free food intake. A body weight and a food intake amount over 24 hours were measured every day from the start of feeding. On day 3 after the start of feeding, blood was taken from an orbit after 6 hour-fasting, and a blood glucose level and a blood insulin concentration were measured. The db/db mice were divided into five groups (10 mice per each group) so that a body weight, a 24 hour-food intake amount, a blood glucose level, and a blood insulin concentration were equal, and defined to be a control group and baclofen treated groups. (±)-baclofen was dissolved in drinking water at respective concentrations of 4×10^−6 M, 10×10^−6 M, 40×10^−6 M, and 100×10^−6 M, and continuously orally administered to the baclofen treated groups for 5 weeks. A food intake amount, a body weight and a water-drinking amount were measured over time during the period of 5 week-administration of (±)-baclofen. […]

NPY mRNA = assay: In situ hybridization, NPY mRNA in hypothalamic arcuate nucleus, DIO mice; settings: (±)-baclofen oral 5 weeks
Method: (§1) A hypothalamic section with a thickness of 12 μm was prepared from the brain preserved at −80° C. by using a cryostat and stuck to a MAS coat slide and then in situ hybridization was performed. For a label of NPY mRNA and POMC mRNA probes, ^35S was used. The hypothalamic section was pretreated by using triethanolamine, ethanol and the like, and then 12 hour-hybridization was performed at 55° C. After the hybridization, the hypothalamic section was treated by washing with SSC, RNase, etc. After development to a film, the mRNA expression strength was assayed by using the NIH image.
(§2) (±)-baclofen was orally administered to DIO mice for 5 weeks according to the above method, and then the DIO mice were sacrificed. A brain was surgically removed, and changes in expression amounts of NPY mRNA and POMC mRNA in the hypothalamic arcuate nucleus were examined by using an in situ hybridization method.

POMC mRNA = assay: In situ hybridization, POMC mRNA in hypothalamic arcuate nucleus, DIO mice; settings: (±)-baclofen oral 5 weeks
Method: as §1, §2

[1] = (±)-baclofen 1.1 mg/dl (low) and 2.7 mg/dl (high) in drinking water, vs control
[2] = (±)-baclofen 1.1 and 2.7 mg/dl in drinking water, continued until end of experiment
[3] = (±)-baclofen 4×10^−6 M in drinking water (roughly 0.2 mg/kg/day)
[4] = (±)-baclofen 10×10^−6 M in drinking water (roughly 0.5 mg/kg/day)
[5] = (±)-baclofen 40×10^−6 M in drinking water (roughly 2 mg/kg/day)
[6] = (±)-baclofen 100×10^−6 M in drinking water (roughly 5 mg/kg/day)

NCC(CC(=O)O)c1ccc(Cl)cc1 (racemic) [(±)-baclofen, (RS)-4-amino-3-(4-chlorophenyl)butanoic acid]
body weight increase (db/db mice; [1]): significant body weight increase suppression | food intake amount (db/db mice; [1]): significantly suppressed | time after start of administration from which body weight increase suppression was significant (db/db mice; [2]): 1 week | time after start of administration from which food intake suppression was significant (db/db mice; [2]): 1 week | time after start of administration from which body weight increase suppression was significant (db/db mice; [3]): 4 weeks | time after start of administration from which food intake suppression was significant (db/db mice; [3]): 4 weeks | body weight increase (db/db mice; [3]): Significant suppression | food intake amount (db/db mice; [3]): Significant suppression | time after start of administration from which body weight increase suppression was significant (db/db mice; [4]): 2 weeks | time after start of administration from which food intake suppression was significant (db/db mice; [4]): 2 weeks | body weight increase (db/db mice; [4]): Significant suppression | food intake amount (db/db mice; [4]): Significant suppression | time after start of administration from which body weight increase suppression was significant (db/db mice; [5]): 1 week | time after start of administration from which food intake suppression was significant (db/db mice; [5]): 1 week | body weight increase (db/db mice; [5]): significantly suppressed | food intake amount (db/db mice; [5]): significantly suppressed | time after start of administration from which body weight increase suppression was significant (db/db mice; [6]): 1 week | time after start of administration from which food intake suppression was significant (db/db mice; [6]): 1 week | body weight increase (db/db mice; [6]): significantly suppressed | food intake amount (db/db mice; [6]): significantly suppressed | expression of NPY mRNA in the hypothalamic arcuate nucleus (NPY mRNA): significantly suppressed | expression of POMC mRNA in the hypothalamic arcuate nucleus (POMC mRNA): significantly increased
